# Like-named read-outs stand apart in the source and are kept apart here.
# Target: T1, TrkA kinase (Homo sapiens, UniProt P04629)
# T1 construct: purchased Upstate, USA
# Test: In vitro TrkA inhibitory activity using TR-FRET assay
# Assay type: biochemical
# In short: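 TrkA kinase (5 ng) was preincubated 30 min at 20-35° C. with compound (1% DMSO final), then 40 nM ULight poly GT and 500 μM ATP were added for 30 min before an EDTA stop. Phosphorylation was detected by Eu anti-phosphotyrosine TR-FRET (ex 340, em 615/665 nm), and IC50 came from sigmoidal fits of 1/3 serial dilutions.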
# [1] = 5 ng TrkA, 500 μM ATP, values given as bins, read-out: TrkA inhibition in-vitro IC50
# T1 sequence (P04629 33-796): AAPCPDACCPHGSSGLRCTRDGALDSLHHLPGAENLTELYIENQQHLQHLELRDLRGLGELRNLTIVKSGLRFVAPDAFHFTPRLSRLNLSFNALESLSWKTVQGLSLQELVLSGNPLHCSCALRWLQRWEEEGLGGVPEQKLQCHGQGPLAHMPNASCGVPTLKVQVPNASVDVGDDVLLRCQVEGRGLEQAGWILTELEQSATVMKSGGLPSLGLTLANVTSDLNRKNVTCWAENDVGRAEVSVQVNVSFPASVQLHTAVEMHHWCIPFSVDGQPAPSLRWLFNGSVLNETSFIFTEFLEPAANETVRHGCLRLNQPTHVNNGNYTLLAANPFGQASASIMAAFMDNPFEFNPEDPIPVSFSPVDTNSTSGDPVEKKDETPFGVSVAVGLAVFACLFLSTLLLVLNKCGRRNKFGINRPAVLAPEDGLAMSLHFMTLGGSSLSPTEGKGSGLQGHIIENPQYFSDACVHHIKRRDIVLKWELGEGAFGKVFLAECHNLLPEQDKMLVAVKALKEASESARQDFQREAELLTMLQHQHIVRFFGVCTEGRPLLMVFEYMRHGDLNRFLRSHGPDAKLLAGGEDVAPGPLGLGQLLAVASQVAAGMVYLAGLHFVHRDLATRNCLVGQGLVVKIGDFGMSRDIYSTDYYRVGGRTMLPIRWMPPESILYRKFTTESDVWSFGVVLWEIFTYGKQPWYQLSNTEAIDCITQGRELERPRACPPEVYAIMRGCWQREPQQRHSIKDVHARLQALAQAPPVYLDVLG
IC50 [1],SMILES,other results
≤ 50 nM,"COCCN(C)S(=O)(=O)NC(=O)c1cnc2ccc(N3CCC[C@@H]3c3cc(F)ccc3O[C@@H]3CCOC3)cn12 [Example 105, 6-((R)-2-(5-fluoro-2-(((R)-tetrahydrofuran-3-yl)oxy)phenyl)pyrrolidin-1-yl)-N—(N-(2-methoxyethyl)-N-methylsulfamoyl)imidazo[1,2-a]pyridine-3-carboxamide]",–
≤ 50 nM,"CCCN(C)S(=O)(=O)NC(=O)c1cnc2ccc(N3C[C@@H](F)C[C@@H]3c3cc(F)ccc3O[C@@H]3CCOC3)cn12 [Example 101, 6-((2R,4S)-4-fluoro-2-(5-fluoro-2-(((R)-tetrahydrofuran-3-yl)oxy)phenyl)pyrrolidin-1-yl)-N—(N-methyl-N-propylsulfamoyl)imidazo[1,2-a]pyridine-3-carboxamide]",–
≤ 50 nM,"CN(c1nccs1)S(=O)(=O)NC(=O)c1cnc2ccc(N3CCC[C@@H]3c3cc(F)ccc3OC3CCOCC3)cn12 [Example 81, (R)-6-(2-(5-fluoro-2-((tetrahydro-2H-pyran-4-yl)oxy)phenyl)pyrrolidin-1-yl)-N—(N-methyl-N-(thiazol-2-yl)sulfamoyl)imidazo[1,2-a]pyridine-3-carboxamide]",–
≤ 50 nM,"CCCN(C)S(=O)(=O)NC(=O)c1cnc2ccc(N3CCC[C@@H]3c3cc(F)ccc3O[C@@H]3CCOC3)cn12 [Example 107, 6-((R)-2-(5-fluoro-2-(((R)-tetrahydrofuran-3-yl)oxy)phenyl)pyrrolidin-1-yl)-N—(N-methyl-N-propylsulfamoyl)imidazo[1,2-a]pyridine-3-carboxamide]",–

# More lines, now with the values behind:
SMILES,IC50 [1],other results
"O=C(Nc1cnc2ccc(N3CCCC3c3cc(F)ccc3F)cn12)N1CC[C@H](O)C1 (stereo partly shown) [Example 2, (3 S)—N-(6-(2-(2,5-difluorophenyl)pyrrolidin-1-yl)imidazo[1,2-a]pyridin-3-yl)-3-hydroxypyrrolidine-1-carboxamide]",100 to 500 nM,–
"CC(CO)(CO)NC(=O)c1cnc2ccc(N3CCC[C@@H]3c3cc(F)ccc3F)cn12 [Example 24, (R)-6-(2-(2,5-difluorophenyl)pyrrolidin-1-yl)-N-(1,3-dihydroxy-2-methylpropan-2-yl)imidazo[1,2-a]pyridine-3-carboxamide]",100 to 500 nM,–
"O=C(NS(=O)(=O)c1ccc(-n2cncn2)cc1)c1cnc2ccc(N3CCC[C@@H]3c3cc(F)ccc3F)cn12 [Example 35, (R)-N-((4-(1H-1,2,4-triazol-1-yl)phenyl)sulfonyl)-6-(2-(2,5-difluorophenyl)pyrrolidin-1-yl)imidazo[1,2-a]pyridine-3-carboxamide]",50 to 100 nM,–
"CCN(C)S(=O)(=O)NC(=O)c1cnc2ccc(N3CCC[C@@H]3c3cc(F)ccc3F)cn12 [Example 34, (R)-6-(2-(2,5-difluorophenyl)pyrrolidin-1-yl)-N-(N-ethyl-N-methylsulfamoyl)imidazo[1,2-a]pyridine-3-carboxamide]",≤ 50 nM,–
"CCN(C)S(=O)(=O)NC(=O)c1cnc2ccc(N3CCCC3c3cc(F)ccc3O[C@@H]3CCOC3)cn12 (single isomer, unassigned) [Example 64]",–,"IC50 (5 ng TrkA, 500 μM ATP, values given as bins, read-out: TrkA inhibitory activity in-vitro IC50): 1000 to 10000 nM"
"O=C(NC12CC3CC(CC(O)(C3)C1)C2)c1cnc2ccc(N3CCC[C@@H]3c3cc(F)ccc3F)cn12 [Example 23, 6-((R)-2-(2,5-difluorophenyl)pyrrolidin-1-yl)-N-((1r,3S,5R,7S)-3-hydroxyadamantan-1-yl)imidazo[1,2-a]pyridine-3-carboxamide]",–,"IC50 (bin with mixed units (lower bound nM, upper bound μM), read-out: TrkA inhibitory activity in-vitro IC50): 500 to 1000 nM"

# — patent US9394305B2, “Substituted imidazo[1,2-a]pyridine compounds as tropomyosin receptor kinase a (TrkA) inhibitors” (Dr. Reddy's Laboratories Ltd., priority 2014, dated 2016)
